Measurements reported in PubChem BioAssay (NCI).
Several values for one entry are separate records, joined by “and”; a condition that tells them apart may be missing. Equal values may be shown once.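 All cell lines were grown in 96-well plates and treated with compound for 48 hours. GI50 marks 50% less growth. The concentration for full growth arrest is given as TGI.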

Tests used:
Experiment in all cases: NCI tumour cell line growth inhibition, 48 h
BT-549 breast = test system: BT-549 breast
DU-145 prostate = test system: DU-145 prostate
HOP-92 NSCLC = test system: HOP-92 NSCLC
HS 578T breast = test system: HS 578T breast
HT29 colon = test system: HT29 colon
K-562 leukemia = test system: K-562 leukemia
NCI-H23 lung = test system: NCI-H23 lung
RXF 393 renal = test system: RXF 393 renal
SK-MEL-5 melanoma = test system: SK-MEL-5 melanoma
SN12C renal = test system: SN12C renal

CN1CCN(c2nc(-c3csc(-c4cccs4)n3)cc3ccccc23)CC1
GI50 (BT-549 breast): 1.82 µM
TGI (BT-549 breast): 3.94 µM
GI50 (DU-145 prostate): 1.8 µM
TGI (DU-145 prostate): 3.34 µM
GI50 (HOP-92 NSCLC): 1.44 µM
TGI (HOP-92 NSCLC): 3.75 µM
GI50 (HS 578T breast): 1.7 µM
TGI (HS 578T breast): 4.34 µM
GI50 (HT29 colon): 1.66 µM
TGI (HT29 colon): 3.41 µM
GI50 (K-562 leukemia): 2.16 µM
TGI (K-562 leukemia): 4.92 µM
GI50 (NCI-H23 lung): 1.93 µM
TGI (NCI-H23 lung): 3.92 µM
GI50 (RXF 393 renal): 1.78 µM
TGI (RXF 393 renal): 3.9 µM
GI50 (SK-MEL-5 melanoma): 1.71 µM
TGI (SK-MEL-5 melanoma): 3.12 µM
GI50 (SN12C renal): 1.81 µM
TGI (SN12C renal): 3.47 µM

O=C1N(Cc2ccccc2Cl)c2ccccc2C12NN=C(c1cccc(Cl)c1)S2 (stereo unspecified)
GI50 (BT-549 breast): 1.83 µM
TGI (BT-549 breast): 3.44 µM
GI50 (DU-145 prostate): 1.7 µM
TGI (DU-145 prostate): 3.26 µM
GI50 (HOP-92 NSCLC): 1.74 µM
TGI (HOP-92 NSCLC): 3.17 µM
GI50 (HS 578T breast): 2.4 µM
TGI (HS 578T breast): 5.85 µM
GI50 (HT29 colon): 2.02 µM
TGI (HT29 colon): 4.3 µM
GI50 (K-562 leukemia): 2.21 µM
TGI (K-562 leukemia): 5.39 µM
GI50 (NCI-H23 lung): 1.63 µM
TGI (NCI-H23 lung): 3.67 µM
GI50 (RXF 393 renal): 1.76 µM
TGI (RXF 393 renal): 3.4 µM
GI50 (SK-MEL-5 melanoma): 1.71 µM
TGI (SK-MEL-5 melanoma): 3.11 µM
GI50 (SN12C renal): 1.91 µM
TGI (SN12C renal): 3.92 µM

CC1SC2(CCCCC2)N(NC(=O)c2[nH]c3ccc(Br)cc3c2-c2ccccc2)C1=O (stereo unspecified)
GI50 (BT-549 breast): > 100 µM
TGI (BT-549 breast): > 100 µM
GI50 (DU-145 prostate): > 100 µM
TGI (DU-145 prostate): > 100 µM
GI50 (HOP-92 NSCLC): 14.6 µM
TGI (HOP-92 NSCLC): 64.8 µM
GI50 (HS 578T breast): 70.7 µM
TGI (HS 578T breast): > 100 µM
GI50 (HT29 colon): 8.1 µM
TGI (HT29 colon): > 100 µM
GI50 (K-562 leukemia): 6.78 µM
TGI (K-562 leukemia): > 100 µM
GI50 (NCI-H23 lung): 30.7 µM
TGI (NCI-H23 lung): > 100 µM
GI50 (RXF 393 renal): 13.7 µM
TGI (RXF 393 renal): 69.2 µM
GI50 (SK-MEL-5 melanoma): > 100 µM
TGI (SK-MEL-5 melanoma): > 100 µM
GI50 (SN12C renal): 4.66 µM
TGI (SN12C renal): 30.6 µM

CCc1nc(N)nc(N)c1-c1ccc(Cl)c(N=[N+]=[N-])c1
GI50 (BT-549 breast): 6.14 µM and 15.2 µM
TGI (BT-549 breast): 48.8 µM and 77.7 µM
TGI (DU-145 prostate): > 100 µM
TGI (HOP-92 NSCLC): > 90.7 µM and 68.2 µM
TGI (HS 578T breast): 93.1 µM and > 100 µM
GI50 (HT29 colon): 1.32 µM and 3.06 µM
TGI (HT29 colon): > 85.4 µM
TGI (K-562 leukemia): > 54.8 µM
TGI (NCI-H23 lung): > 93.8 µM and 80.9 µM
GI50 (RXF 393 renal): 2.86 µM and 11.7 µM
TGI (RXF 393 renal): 42.3 µM and 73.6 µM
TGI (SK-MEL-5 melanoma): 19.1 µM and 18.2 µM
TGI (SN12C renal): > 100 µM

NC(=O)c1sc(-n2cnc3cc(C(F)(F)F)ccc32)cc1OCc1ccccc1Br
GI50 (BT-549 breast): > 25 µM
TGI (BT-549 breast): > 25 µM
GI50 (DU-145 prostate): > 25 µM
TGI (DU-145 prostate): > 25 µM
GI50 (HOP-92 NSCLC): 8.02 µM
TGI (HOP-92 NSCLC): > 25 µM
GI50 (HS 578T breast): 12.4 µM
TGI (HS 578T breast): > 25 µM
GI50 (HT29 colon): > 19.5 µM
TGI (HT29 colon): > 25 µM
GI50 (K-562 leukemia): 24.7 µM
TGI (K-562 leukemia): > 25 µM
GI50 (NCI-H23 lung): > 25 µM
TGI (NCI-H23 lung): > 25 µM
GI50 (RXF 393 renal): > 12.9 µM
TGI (RXF 393 renal): > 25 µM
GI50 (SK-MEL-5 melanoma): > 16.5 µM
TGI (SK-MEL-5 melanoma): > 25 µM
GI50 (SN12C renal): 24.6 µM
TGI (SN12C renal): > 25 µM

COc1ccc(CCN2CCC(CN(C)Cc3cnn(-c4ccccc4)c3)CC2)cc1
GI50 (BT-549 breast): 14.5 µM
TGI (BT-549 breast): 36.2 µM
GI50 (DU-145 prostate): 37 µM
TGI (DU-145 prostate): > 100 µM
GI50 (HOP-92 NSCLC): 4.61 µM
TGI (HOP-92 NSCLC): 19.3 µM
GI50 (HS 578T breast): 13.5 µM
TGI (HS 578T breast): 32.6 µM
GI50 (HT29 colon): 4.29 µM
TGI (HT29 colon): 17.3 µM
GI50 (K-562 leukemia): 3.14 µM
TGI (K-562 leukemia): 10.9 µM
GI50 (NCI-H23 lung): 29.8 µM
TGI (NCI-H23 lung): > 100 µM
GI50 (RXF 393 renal): 7.74 µM
TGI (RXF 393 renal): 24.1 µM
GI50 (SK-MEL-5 melanoma): 3.96 µM
TGI (SK-MEL-5 melanoma): 14.9 µM
GI50 (SN12C renal): 21.3 µM
TGI (SN12C renal): > 100 µM

COc1ccc(-c2csc(NC(=O)CN3CCN(c4cc5c(cc4F)c(=O)c(C(=O)O)cn5C4CC4)CC3)n2)cc1
GI50 (BT-549 breast): 3.03 µM
TGI (BT-549 breast): > 100 µM
GI50 (DU-145 prostate): 3.35 µM
TGI (DU-145 prostate): > 100 µM
GI50 (HOP-92 NSCLC): 2.82 µM
TGI (HOP-92 NSCLC): 7.17 µM
GI50 (HS 578T breast): 9.82 µM
TGI (HS 578T breast): > 100 µM
GI50 (HT29 colon): 3.49 µM
TGI (HT29 colon): > 100 µM
GI50 (NCI-H23 lung): 2.9 µM
TGI (NCI-H23 lung): > 100 µM
GI50 (RXF 393 renal): 4.97 µM
TGI (RXF 393 renal): 27.7 µM
GI50 (SN12C renal): 3.37 µM
TGI (SN12C renal): > 100 µM

O=[N+]([O-])c1cc2no[n+]([O-])c2cc1N1CCCCC1
TGI (BT-549 breast): 45.2 µM
TGI (DU-145 prostate): 6.18 µM
TGI (HOP-92 NSCLC): 7.04 µM
TGI (HS 578T breast): 72.5 µM
TGI (HT29 colon): 3.86 µM
TGI (K-562 leukemia): 7.98 µM
TGI (NCI-H23 lung): 43.4 µM
TGI (RXF 393 renal): 3.29 µM
TGI (SK-MEL-5 melanoma): 41.7 µM
TGI (SN12C renal): 4.34 µM

CCCCOC1OC(COC(=O)C(C)C)C(OC(=O)C(C)C)C(O)C1OC1OC(C)C(OC(=O)CCC)C(OC(=O)C(C)C)C1O (stereo unspecified)
GI50 (BT-549 breast): 22.1 µM
TGI (BT-549 breast): 37.7 µM
GI50 (DU-145 prostate): 16.3 µM
TGI (DU-145 prostate): 29.8 µM
GI50 (HOP-92 NSCLC): 13.2 µM
TGI (HOP-92 NSCLC): 25.9 µM
GI50 (HS 578T breast): 20.7 µM
TGI (HS 578T breast): 39.7 µM
GI50 (HT29 colon): 9.33 µM
TGI (HT29 colon): 22.5 µM
GI50 (K-562 leukemia): 3.09 µM
TGI (K-562 leukemia): 14.3 µM
GI50 (NCI-H23 lung): 14 µM
TGI (NCI-H23 lung): 27 µM
GI50 (RXF 393 renal): 8.41 µM
TGI (RXF 393 renal): 31.2 µM
GI50 (SK-MEL-5 melanoma): 13.6 µM
TGI (SK-MEL-5 melanoma): 26.5 µM

COc1ccc2c(c1)-c1nn(CCCN(C)C)c3ccc([N+](=O)[O-])c(c13)N2
TGI (BT-549 breast): 7.19 µM
TGI (DU-145 prostate): 4.72 µM and 2.86 µM
GI50 (HOP-92 NSCLC): 0.192 µM and 0.764 µM
TGI (HOP-92 NSCLC): 1.77 µM and 4.97 µM
GI50 (HS 578T breast): 0.355 µM
TGI (HS 578T breast): 3.17 µM and 3.24 µM
TGI (HT29 colon): 2.46 µM and 3.05 µM
GI50 (K-562 leukemia): 0.145 µM and 0.338 µM
TGI (K-562 leukemia): 5.57 µM and 12.1 µM
TGI (NCI-H23 lung): 2.08 µM and 2.3 µM
GI50 (RXF 393 renal): 0.274 µM and 0.135 µM
TGI (RXF 393 renal): 1.33 µM and 2.05 µM
TGI (SK-MEL-5 melanoma): 2 µM and 2.92 µM
TGI (SN12C renal): 3.68 µM and 10.1 µM

COc1ccc(-c2c3c(nc4n[nH]c(-c5ccc(Cl)cc5)c24)-c2ccccc2C(=O)C3=O)cc1
GI50 (BT-549 breast): 1.41 µM
TGI (BT-549 breast): 2.89 µM
GI50 (DU-145 prostate): 1.59 µM
TGI (DU-145 prostate): 2.96 µM
GI50 (HOP-92 NSCLC): 1.18 µM
TGI (HOP-92 NSCLC): 3.17 µM
GI50 (HS 578T breast): 1.85 µM
TGI (HS 578T breast): 8.14 µM
GI50 (HT29 colon): 1.87 µM
TGI (HT29 colon): 3.4 µM
GI50 (K-562 leukemia): 1.58 µM
TGI (K-562 leukemia): > 100 µM
GI50 (NCI-H23 lung): 1.64 µM
TGI (NCI-H23 lung): 4.74 µM
GI50 (RXF 393 renal): 1.5 µM
TGI (RXF 393 renal): 3.1 µM
GI50 (SK-MEL-5 melanoma): 1.51 µM
TGI (SK-MEL-5 melanoma): 2.84 µM
GI50 (SN12C renal): 1.66 µM
TGI (SN12C renal): 3.82 µM

CN(CCC(=O)/C(=C\c1ccccc1)c1ccc(Cl)cc1)Cc1ccccc1
GI50 (BT-549 breast): 2.94 µM
TGI (BT-549 breast): 8.76 µM
GI50 (DU-145 prostate): 2.35 µM
TGI (DU-145 prostate): 6.78 µM
GI50 (HOP-92 NSCLC): 2.55 µM
TGI (HOP-92 NSCLC): 6.16 µM
GI50 (HS 578T breast): 3.99 µM
TGI (HS 578T breast): 47.5 µM
GI50 (HT29 colon): 2.28 µM
TGI (HT29 colon): 5.2 µM
GI50 (K-562 leukemia): 2.16 µM
TGI (K-562 leukemia): 13.1 µM
GI50 (NCI-H23 lung): 2.94 µM
TGI (NCI-H23 lung): 8.62 µM
GI50 (RXF 393 renal): 1.86 µM
TGI (RXF 393 renal): 3.69 µM
GI50 (SK-MEL-5 melanoma): 3.44 µM
TGI (SK-MEL-5 melanoma): 13.1 µM
GI50 (SN12C renal): 2.38 µM
TGI (SN12C renal): 6.39 µM

O=C(CCCN1CCC(C(O)c2ccc(F)cc2)CC1)c1ccc(F)cc1 (stereo unspecified)
TGI (BT-549 breast): 93 µM
TGI (DU-145 prostate): 118 µM
TGI (HOP-92 NSCLC): 60.4 µM
TGI (HS 578T breast): 116 µM
TGI (HT29 colon): 92.7 µM
TGI (K-562 leukemia): 154 µM
TGI (NCI-H23 lung): 134 µM
TGI (RXF 393 renal): 98.3 µM
TGI (SK-MEL-5 melanoma): 99.3 µM
TGI (SN12C renal): 141 µM
